Reference: patent publication US20160106711A1, “3-3-Di-Substituted-Oxindoles as Inhibitors of Translation Initiation” (President and Fellows of Harvard College, priority 2012, published 2016)

Legend:
[1] = tested on: eIF2•GTP•Met-tRNAi ternary complex; assay: Ternary complex assay (ATF-4 assay), dual luciferase firefly/renilla ratio; type: cell-based, mouse; conditions: for maximal fold induction at 40 µM: read-out: ATF-4 Xmax @ 40 μM
How it was run: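 Stable KLN cancer cells expressing tTA carry a bidirectional reporter in which firefly luciferase sits behind the ATF-4 5′UTR and renilla luciferase behind a plasmid-derived 5′UTR only. Lysates were read by Dual-Glo luciferase assay, and the output is the firefly/renilla signal ratio.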

[2] = tested on: CHOP mRNA; assay: Real time PCR of CHOP mRNA expression, KLN cells; type: cell-based, mouse; conditions: for CHOP PCR (μM) KLN / fold induction at 20 µM: at 20 uM
Procedure: (§1) In order to validate the compounds described herein as modifiers of the abundance of the eIF2•GTP•Met-tRNAi ternary complex, the effects of the compounds on endogenous cellular markers of the ternary complex were determined. For example, reducing amount of the ternary complex increases translation of ATF-4, which results in elevated expression of CHOP mRNA and protein. Therefore, expression of endogenous CHOP mRNA and CHOP protein in KLN-tTA/pBISA-DL^(ATF-4) cells were utilized as secondary assays to validate the compounds as modifiers of the eIF2•GTP•Met-tRNAi ternary complex.
(§2) Total RNA was extracted with TaqMan Gene Expression Cells-to-Ct™ Kit (Applied Biosystems, Branchburg, N.J.) and DNAse I treated according to manufacturer's recommendations. 1-Step Real-time PCR was performed on a Bio-Rad iCycler IQ5 system by using B-R 1-Step SYBR Green qRT-PCR Kit (Quanta BioSciences, Gaithersburg, Md.) according to manufacturer's specifications. The thermal cycler conditions were as follows: 10 minutes at 50° C., hold for 5 minutes at 95° C., followed by 2-step PCR for 45 cycles of 95° C. for 15 seconds followed by 60° C. for 30 seconds. All PCRs were performed in triplicate in at least two independent PCR runs. Mean values of these repeated measurements were used for calculation. To calibrate the results, all the transcript quantities were normalized to 18S rRNA (18S ribosomal RNA-like mRNA in mouse). The following primers were used in real-time PCR reactions.
The effects of these compounds on the ternary complex assay and the expression of CHOP mRNA was assayed in adherent mouse (KLN) and human solid tumors cells (CRL-2351 and CRL-2813).

[3] = tested on: CRL-2813; assay: Cell growth assay (sulforhodamine B), CRL-2813 cells; type: cell-based, human; conditions: 5 days, SRB
How it was run: (§3)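 Cells were exposed for 5 days to 0.54-6 µM compound, then TCA-fixed and stained with sulforhodamine B, read at 490 nm. Growth was expressed as %T/C with time-zero correction. IC50 is the concentration giving 50% growth inhibition.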

[4] = tested on: KLN; assay: Cell growth assay (sulforhodamine B), KLN cells; type: cell-based, mouse; conditions: 5 days, SRB
[5] = tested on: CRL-2351; assay: Cell growth assay (sulforhodamine B), CRL-2351 cells; type: cell-based, human; conditions: 5 days, SRB
How it was run: as §3

[6] = tested on: CHOP mRNA; assay: Real time PCR of CHOP mRNA expression, CRL-2351 cells; type: cell-based, human
Procedure: as §1
as §2, with “Mean values of these repeated measurements were used for calculation.” left out, “The following primers were used in real-time PCR reactions.” left out

[7] = Mus musculus, read-out: ATF-4 Xmax

| SMILES | maximal fold induction at 40 µM ([1]; Mus musculus, at 40 uM) | fold induction at 40 µM ([2]; Mus musculus) | IC50 ([3]; Homo sapiens, CRL2813, 120 h) | IC50 ([4]; Mus musculus, 120 h) | IC50 ([5]; Homo sapiens, 120 h) | maximal fold induction at 80 µM [1, 7] | also measured |
| --- | --- | --- | --- | --- | --- | --- | --- |
| CN(C)CCN1C(=O)C(c2cc(C(C)(C)C)ccc2CCCN2CCCC2)(c2cc(C(C)(C)C)ccc2OCCN2CCCC2)c2ccccc21 (stereo not shown) [HY198] | – | – | – | – | – | – | ATF-4 Xmax ([1]; 2.5 uM): 11.82 ± 0.11/2.5 uM; CHOP PCR (μM) KLN [2]: 3.76 at; IC50 [3]: 0.8 ± 0.1 µM; IC50 [4]: 0.3 ± 0.1 µM; IC50 [5]: 0.2 ± 0.05 µM |
| COCCOc1ccc(C(C)(C)C)cc1C1(c2cc(C(C)(C)C)ccc2O)C(=O)Nc2ccccc21 (stereo not shown) [HY081] | 1.21 ± 0.16 | 1.78 | 0.9 ± 0.1 µM | > 20 µM | 3.9 ± 2 µM | – | – |
| CC(C)(C)c1ccc(O)c(C2(c3cc(C(C)(C)C)ccc3OCCBr)C(=O)N(CCBr)c3ccccc32)c1 (stereo not shown) [HY183] | – | – | 1.1 ± 0.3 µM | > 20 µM | 2.9 ± 1.2 µM | 1.9 ± 0.03 | fold induction at 80 µM ([2]; Mus musculus): 1.83 |
| CCN(CCO)CCOc1ccc(C(C)(C)C)cc1C1(c2cc(C(C)(C)C)ccc2OCCN2CCOCC2)C(=O)N(CCN(C)C)c2ccccc21 (stereo not shown) [HY306] | – | – | – | – | – | – | ATF-4 Xmax @ 40 μM ([1]; at 40 uM): 19.2 ± 11.2 at 40 uM; CHOP PCR (μM) KLN [2]: 8.11 at; IC50 [3]: 2.7 ± 0.8 µM; IC50 [4]: 2.3 ± 1.6 µM; IC50 [5]: 2.3 ± 0.6 µM |
| CC(C)(C)c1ccc(OCCN2CCCC2)c(C2(c3cc(C(C)(C)C)ccc3OCCN3CCCC3)C(=O)Nc3ccccc32)c1 [HY191] | – | – | 0.8 ± 0.1 µM | 3.5 ± 1.2 µM | 0.65 ± 0.1 µM | – | maximal fold induction at 5 µM ([1]; Mus musculus, cell prints 5 (uM), read-out: ATF-4 Xmax): 13.9 ± 0.97; fold induction at 5 µM ([2]; Mus musculus, at 5 uM): 8.5 |
| COCCOc1ccc(C(C)(C)C)cc1C1(c2cc(C(C)(C)C)ccc2OCCOC)C(=O)Nc2ccccc21 [HY181] | – | – | 0.9 ± 0.1 µM | > 20 µM | 3.9 ± 2 µM | 1.58 ± 0.07 | fold induction at 80 µM ([2]; Mus musculus): 1.1 |
| COc1ccc(C(C)C)cc1C1(c2cc(C(C)C)ccc2OC)C(=O)Nc2ccccc21 [HY061] | – | 4.23 | 2.8 ± 0.2 µM | 11 ± 0.4 µM | 3 µM | 2.9 ± 1.21 | fold induction at 80 µM ([2]; Mus musculus): 12.3 |
| O=C1Nc2ccccc2C1(c1cc(C2CCCC2)ccc1O)c1cc(C2CCCC2)ccc1O [HY051, 3,3-Bis(5-Cyclopentyl-2-Hydroxyphenyl)Indolin-2-One] | – | – | 3.1 ± 0.2 µM | > 20 µM | 5.3 ± 2.4 µM | – | maximal fold induction at 20 µM [1, 7]: 5.48 ± 0.3; fold induction at 20 µM ([2]; Mus musculus): 13.8 |
| O=C1Nc2ccccc2C1(c1cc(Cl)ccc1O)c1cc(Cl)ccc1O [HY033, 3,3-Bis(5-Chloro-2-Hydroxyphenyl)Indolin-2-One] | 6.14 ± 0.63 | – | 4.2 ± 0.2 µM | 15.2 ± 1.6 µM | 6.8 ± 0.8 µM | – | CHOP PCR (μM) 2351 ([6]; CRL-2351, 20 uM): 7.8/20 uM; CHOP PCR (μM) 2351 ([6]; CRL-2351, 40 uM): 18.5/40 uM |
| CC(C)(C)c1ccc(O)c(C2(c3cc(C(C)(C)C)ccc3O)C(=O)N(CCN3CCOCC3)c3ccccc32)c1 [HY304] | 4.31 ± 0.1 | 9.1 | 1.6 ± 0.2 µM | 17.5 ± 1.3 µM | 2.2 ± 0.2 µM | – | – |
| CN1CCN(CCOc2ccc(C(C)(C)C)cc2C2(c3cc(C(C)(C)C)ccc3OCCN3CCN(C)CC3)C(=O)N(CCN3CCNCC3)c3ccccc32)CC1 [HY313] | – | – | > 20 µM | 9.3 ± 3.2 µM | 0.6 ± 0.1 µM | – | fold induction at 10 µM ([2]; Mus musculus, at 10 (uM)): 6.73 |
| CCN(CC)CCOc1ccc(C(C)(C)C)cc1C1(c2cc(C(C)(C)C)ccc2O)C(=O)Nc2ccccc21 (stereo not shown) [HY096] | – | – | 1.5 ± 0.6 µM | 0.8 ± 0.4 µM | 0.6 ± 0.1 µM | – | maximal fold induction at 20 µM [1, 7]: 16.7 ± 3.24; fold induction at 20 µM ([2]; Mus musculus): 12.4 |
| CC(C)(C)c1ccc(O)c(C2(c3cc(C(C)(C)C)ccc3OCCN3CCOCC3)C(=O)N(CCN3CCOCC3)c3ccccc32)c1 (stereo not shown) [HY305] | 3.61 ± 0.47 | 10 | 2 µM | 5 µM | 3.6 ± 0.7 µM | 31.9 ± 9.27 | – |
